Experimental data as given in patent US9943599B2, “Therapeutic applications of calcium electroporation to effectively induce tumor necrosis” (Herlev Hospital, priority 2011, dated 2018).
Where two headings read alike, the source gives them in different places.

What was measured:
[1] = test system: H69 (human small cell lung cancer) tumors; assay: Hypothetical volume test of injected solution; assay type: in vivo, NMRI-Foxn1^nu mice; conditions: with electroporation
Description: H69, a human small cell lung cancer cell line stably transfected with EGFP regulated by the cytomegalo-virus (CMV) promoter, is used for the in vivo experiments. The cells are tested by rapid MAP27 panel (Taconic, Hudson N.Y.) before use without signs of infection. Cells are maintained in vitro as described in Example 1. 1.5×10^6 cells/100 μl PBS are injected subcutaneously in both flanks of NMRI-Foxn1^nu mice (Harlan, Indianapolis, Ind.) that are 9-11 weeks old. Tumor pieces are transplanted from donor mice to the right flank of nude mice. HYPNORM™-DORMICUM™ (fentanyl/fluanisone/midazolam; VetaPharma, Leeds, U K and Roche, Basel, Switzerland) is used for anesthesia complemented with RIMADYL® (Carprofen) (Pfizer ApS, Ballerup, Denmark) […] as lidocaine (Region Hovedstadens Apotek, Herlev, Denmark) in the incision. […] Tumor volume is calculated as ab^2n/6, where “a” is the largest diameter and “b” is the largest diameter perpendicular to “a”. […] Background fluorescence is measured on the opposite flank and then the background fluorescence level is subtracted from fluorescence intensity of tumors. Finally, all fluorescence intensity below 100 normalised counts (NC) is filtered away using ART, Saint-Laurent, Quebec OPTIX® Optiview version 2.02 software (ART, Saint-Laurent, Quebec).
The differences in tumor volume and fluorescence intensity between tumors injected with the different solution volumes in the 4 treatment groups are evaluated as repeated measurements, validated and analysed with an exponential decrease model with Bonferroni correction for multiple comparisons using SAS® software version 9.1 (SAS, Cary, N.C.). ‘Group’, ‘days’ and ‘mouse’ are considered as factors and baseline levels of tumor volume or fluorescence intensity are used as covariant.

[2] = test system: DC-3F, K-562 and Lewis Lung Carcinoma cells; assay: In vitro electroporation, MTT viability assay; assay type: cell-based, Chinese hamster, human, murine
Description: Three cell lines are used for in vitro experiments, DC-3F, a transformed Chinese hamster lung fibroblast cell line; K-562, a human leukemia cell line; and Lewis Lung Carcinoma, a murine lung carcinoma cell line. DC-3F cells were tested for mycoplasma in January 2011, K-562 cells were tested for mycoplasma in 2008 prior to freezing and thawing just before experiments were performed, and Lewis Lung cells were tested by rapid MAP27 panel (Taconic, Hudson N.Y.) in July 2011 without signs of infection. Cells are maintained in RPMI 1640 culture medium (GIBCO™, Life Technologies, Carlsbad, Calif.) with 10% fetal calf serum (GIBCO™, Life Technologies, Carlsbad, Calif.), penicillin and streptomycin at 37° C. and 5% C02. After harvesting, cells are washed and diluted in HEPES buffer containing 10 mM HEPES (Lonza, Basel, Switzerland), 250 mM sucrose and 1 mM MgCl2 in sterile water. 270 μl cell suspension (6.1×10^6 cells/ml) and 30 μl CaCl2, or in the case of controls, HEPES buffer, are electroporated in 4 mm wide cuvettes with aluminium electrodes (Molecular BioProducts, Inc., San Diego, Calif.). Cooled cells (8° C.) are exposed to 8 pulses of 1.2 kV/cm with pulse duration of 99 μs (DC-3F and K562 cells) or 8 pulses of 1.4 kV/cm with pulse duration of 99 μs (Lewis Lung Carcinoma) using a BTX® T820 square wave electroporator (BTX®, Harvard Apparatus, Holliston, Mass.). The electroporation parameters are chosen after optimization to obtain high permabilisation and cell survival. After 20 min at 37° C. and 5% CO2 cells are diluted in RPMI 1640 culture medium with 10% fetal calf serum and penicillin-streptomycin and seeded in 96-well plates at a concentration of 3.1×10^4 cells/100 μl.
Difference between electroporated and non-electroporated cells in identical buffer is assessed using two-way analysis of variance (ANOVA) with post least-squares-means test with Bonferroni correction for multiple comparisons.

Q: Which results are given for `[Ca+2].[Cl-].[Cl-]` [calcium chloride]?
A: tumors eliminated ([1]; volume ratio 0.2, 004, 0.6 or 0.8): eliminates most of the tumors; ulceration of treated tumors [1]: occurs in most; fluorescence intensity of tumors ([1]; all 4 injection volumes): decrease drastically; EC50 ([2]; all electroporated cell lines, 8 pulses 1.2-1.4 kV/cm, 99 μs, MTT 1 and 2 days after treatment, read-out: EC50 (decrease in viability)): 570 µM; lowest concentration inducing high cell death ([2]; electroporated): 1 mM; calcium concentration from which viability decreases significantly (p<0.01) ([2]; electroporated, all cell lines): ≥ 0.5 mM; cell death after calcium electroporation ([2]; electroporated, all three cell lines): dose dependent cell death; effect on cell viability ([2]; non-electroporated cells, high calcium concentrations): no effect on cell viability; EC50 ([2]; range over the electroporated cell lines, read-out: EC50 range (decrease in viability)): 350 to 790 µM; EC50 (decrease in viability) ([2]; without electroporation): not reached
